Experimental data from ChEMBL document CHEMBL4610091, “Antimalarial 9-Methoxystrobilurins, Oudemansins, and Related Polyketides from Cultures of Basidiomycete Favolaschia Species” (J Nat Prod, 2020).

What was measured:
[1] = test system: Plasmodium falciparum; assay: Antiplasmodial activity against Plasmodium falciparum K1 assessed as reduction in [3H]-hypoxanthine after 42 hrs by microculture radioisotope technique; assay type: functional, organism-based
[2] = test system: Vero; assay: Cytotoxicity against African green monkey Vero cells by green fluorescent protein-based assay; assay type: cell-based; details: Chlorocebus sabaeus
[3] = test system: MCF7; assay: Cytotoxicity against human MCF7 cells by resazurin microplate assay; assay type: functional, cell-based
[4] = test system: NCI-H187; assay: Cytotoxicity against human NCI-H187 cells by resazurin microplate assay; assay type: functional, cell-based
[5] = Selectivity index, ratio of IC50 for African green monkey Vero cells to IC50 for Plasmodium falciparum K1; assay type: toxicity; details: read-out: Ratio IC50

Structure (SMILES) | IC50 [1] [µM] | IC50 [2] [µM] | IC50 [3] [µM] | IC50 [4] [µM] | selectivity ratio [5]
C[C@H]1[C@@H](O)O[C@@H]2O[C@@]3(C)CC[C@H]4[C@H](C)CC[C@@H]1[C@@]24OO3 [ARTENIMOL] | 0.0031 | – | – | – | –
CO/C=C(/C(=O)OC)C(C)C(=O)/C=C/c1ccccc1 (centres undefined) | > 36 | > 182 | > 182 | 60.1 | –
CO/C=C(/C(=O)OC)C(C)C(=O)/C=C/c1ccc2c(c1)OC(C)(C)[C@@H](OCC=C(C)C)CO2 (some centres undefined) | 4.2 | 68.2 | > 109 | 9.4 | 16.3
CO/C=C(/C(=O)OC)[C@H](C)[C@H](/C=C/c1cccc(OC)c1)OC | 10.3 | 112 | > 156 | 97.7 | 10.9
COC(=O)/C(CO)=C(/C)[C@H](/C=C/c1ccccc1)OC | > 36 | > 181 | > 181 | > 181 | –
CO\C=C(C(=O)OC)/C(C)=C\C=C\c1ccc2c(c1)OC(C)(C)[C@@H](OCC=C(C)C)CO2 | 0.84 | > 113 | 24.8 | 4.9 | > 135
CO/C=C(/C(=O)OC)[C@H](C)[C@@H](O)/C=C/c1ccccc1 | > 36 | > 181 | – | 160 | –
Cc1c2ccncc2c(C)c2c1[nH]c1ccccc12 [ELLIPTECINE] | – | 7.47 | – | 9.3 | –
CO/C=C(/C(=O)OC)[C@H](C)[C@H](/C=C/c1ccc2c(c1)OC(C)(C)[C@@H](O)CO2)OC | 22.3 | > 123 | > 123 | 56.9 | > 5.2
C[C@]1([C@@H]2Cc3cc(C(N)=O)cc(Cl)c3O2)CCC(=O)O1 | > 34 | > 169 | > 169 | > 169 | –
C/C(=C\c1ccccc1)[C@@H](O)C(C)(C)O | > 48 | > 242 | > 242 | > 242 | –
CO\C=C(C(=O)OC)/C(C)=C(\C=C\c1ccc2c(c1)O[C@@]1(CO2)O[C@H](C=C(C)C)OC1(C)C)OC | 0.14 | > 103 | > 103 | 3.3 | > 736
COC(=O)c1cc(-c2ccc3c(c2)O[C@@]2(CO3)O[C@H](C=C(C)C)OC2(C)C)cc(OC)c1C | > 22 | 13.6 | – | 53.4 | –
CC(=O)OCC/C(C)=C\[C@H](O)[C@H](O)c1ccccc1 | > 38 | > 189 | > 189 | > 189 | –
C=CC(C)(C)O[C@H]1COc2ccc(/C=C/C(OC)=C(C)\C(=C/OC)C(=O)OC)cc2OC1(C)C | 0.089 | 97.9 | 44.1 | 0.15 | 1100
COC(=O)/C(COC(=O)Cc1ccccc1)=C(/C)[C@H](/C=C/c1ccc(Cl)c(OC)c1)OC | > 22 | 55.4 | > 109 | 37.9 | –
CO/C=C(/C(=O)OC)C(C)C(=O)/C=C/c1ccc2c(c1)O[C@@]1(CO2)O[C@H](C=C(C)C)OC1(C)C (mixture of isomers) | 10.8 | 18.4 | 23.2 | 5.8 | 1.7
C/C(=C\c1ccccc1)[C@@H](O)C(C)(C)C(=O)O | > 43 | > 213 | > 213 | > 213 | –
C=CC(C)(C)O[C@H]1COc2ccc(/C=C/[C@H](OC)[C@@H](C)/C(=C\OC)C(=O)OC)cc2OC1(C)C | 0.24 | 24.5 | > 105 | 0.96 | 102
COC(=O)c1cc(-c2ccccc2)cc(OC)c1C | > 39 | 74 | > 195 | 188 | –
C/C(=C/[C@H](O)[C@H](O)c1ccccc1)CCO | > 45 | > 225 | > 225 | > 225 | –
O[C@@H](c1cc(C(F)(F)F)nc2c(C(F)(F)F)cccc12)[C@H]1CCCCN1 | 0.052 | – | – | – | –
CO/C=C(/C(=O)OC)[C@H](C)[C@H](/C=C/c1ccc2c(c1)OC(C)(C)[C@@H](OCC=C(C)C)CO2)OC | 0.48 | 28.2 | > 105 | 2.2 | 58.8
C=CC(C)(C)O[C@H]1COc2cc(C(=O)OC)c(C)c(OC)c2OC1(C)C | 8.4 | 43.4 | > 113 | 54.8 | –
COC(=O)/C(CO)=C(/C)[C@H](/C=C/c1ccc(Cl)c(OC)c1)OC | > 29 | 123 | > 147 | 141 | –
